Data: PMC5218480 (PLoS ONE, 2017)

System: MV-4-11 cells
Experiment: Gene expression microarray analysis (Affymetrix PrimeView) and GSEA
Assay type: cell-based, human
Design: RFU PODN (11730768_x_at) / Fold change /veh PODN (11730768_x_at) / RFU LINC00158 (11744669_a_at) / Fold change /veh LINC00158 (11744669_a_at) / RFU DUSP10 (11751237_a_at) / Fold change /veh DUSP10 (11751237_a_at) / RFU ID3 (11757404_x_at) / Fold change /veh ID3 (11757404_x_at) / RFU PLEKHG5 (11737974_s_at) / Fold change /veh PLEKHG5 (11737974_s_at) / RFU LRRC4B (11730491_at) / Fold change /veh LRRC4B (11730491_at) / RFU GIMAP4 (11747438_a_at) / Fold change /veh GIMAP4 (11747438_a_at) / RFU KRT8 (11758183_x_at) / Fold change /veh KRT8 (11758183_x_at) / RFU CNN1 (11734310_a_at) / Fold change /veh CNN1 (11734310_a_at) / RFU VPS37D (11726825_at) / Fold change /veh VPS37D (11726825_at) / RFU C10orf10 (11716522_x_at) / Fold change /veh C10orf10 (11716522_x_at) / RFU KIR2DL2 /// KIR2DL4 /// KIR2DL5A /// KIR2DL5B /// KIR2DS1 /// KIR2DS2 /// KIR2DS3 /// KIR2DS4 /// KIR3DL3 /// KIR3DL3 /// KIR3DS1 (11738374_at) / Fold change /veh KIR2DL2 /// KIR2DL4 /// KIR2DL5A /// KIR2DL5B /// KIR2DS1 /// KIR2DS2 /// KIR2DS3 /// KIR2DS4 /// KIR3DL3 /// KIR3DL3 /// KIR3DS1 (11738374_at) / RFU C1QL1 (11718748_at) / Fold change /veh C1QL1 (11718748_at) / RFU TMPRSS4 (11747572_a_at) / Fold change /veh TMPRSS4 (11747572_a_at) / RFU HAMP (11756126_x_at) / Fold change /veh HAMP (11756126_x_at) / RFU RNFT2 (11725882_a_at) / Fold change /veh RNFT2 (11725882_a_at) / RFU NR4A2 (11747474_a_at) / Fold change /veh NR4A2 (11747474_a_at) / RFU ABCC12 (11746883_a_at) / Fold change /veh ABCC12 (11746883_a_at) / RFU TMEM136 (11760407_x_at) / Fold change /veh TMEM136 (11760407_x_at) / RFU CLDN22 /// WWC2 (11732394_at) / Fold change /veh CLDN22 /// WWC2 (11732394_at) / RFU HLA-DPB1 (11760878_x_at) / Fold change /veh HLA-DPB1 (11760878_x_at) / RFU SPINT1 (11716480_a_at) / Fold change /veh SPINT1 (11716480_a_at) / RFU GAP43 (11754022_s_at) / Fold change /veh GAP43 (11754022_s_at) / RFU A4GNT (11735810_at) / Fold change /veh A4GNT (11735810_at) / RFU PRB3 (11715151_x_at) / Fold change /veh PRB3 (11715151_x_at) / RFU TUBB4B (11761932_at) / Fold change /veh TUBB4B (11761932_at) / RFU CAPN14 (11732068_a_at) / Fold change /veh CAPN14 (11732068_a_at) / RFU TMCC2 (11721928_a_at) / Fold change /veh TMCC2 (11721928_a_at) / RFU IRGQ (11745062_a_at) / Fold change /veh IRGQ (11745062_a_at) / RFU FAM174B (11720279_a_at) / Fold change /veh FAM174B (11720279_a_at) / RFU TMPRSS4 (11748680_a_at) / Fold change /veh TMPRSS4 (11748680_a_at) / RFU FAM212B (11763350_a_at) / Fold change /veh FAM212B (11763350_a_at) / RFU PLEKHG5 (11743358_a_at) / Fold change /veh PLEKHG5 (11743358_a_at) / RFU ZSCAN30 (11745921_a_at) / Fold change /veh ZSCAN30 (11745921_a_at) / RFU CMKLR1 (11741424_a_at) / Fold change /veh CMKLR1 (11741424_a_at) / RFU LOC101060620 /// MAPK8IP1 (11723275_at) / Fold change /veh LOC101060620 /// MAPK8IP1 (11723275_at) / RFU SPTSSB (11747773_x_at) / Fold change /veh SPTSSB (11747773_x_at) / RFU PRSS12 (11739890_at) / Fold change /veh PRSS12 (11739890_at) / RFU BIN1 (11741810_x_at) / Fold change /veh BIN1 (11741810_x_at) / RFU WNT11 (11732464_a_at) / Fold change /veh WNT11 (11732464_a_at) / RFU C10orf10 (11716521_a_at) / Fold change /veh C10orf10 (11716521_a_at) / RFU C5orf56 (11738089_at) / Fold change /veh C5orf56 (11738089_at) / RFU CYB561 (11721691_x_at) / Fold change /veh CYB561 (11721691_x_at) / RFU ANKRD19P (11752326_a_at) / Fold change /veh ANKRD19P (11752326_a_at) / RFU OR2T12 /// OR2T33 /// OR2T8 (11738714_s_at) / Fold change /veh OR2T12 /// OR2T33 /// OR2T8 (11738714_s_at) / RFU VCAN (11748164_a_at) / Fold change /veh VCAN (11748164_a_at) / RFU JSRP1 (11732532_at) / Fold change /veh JSRP1 (11732532_at) / RFU KRTAP10-11 (11738290_x_at) / Fold change /veh KRTAP10-11 (11738290_x_at) / RFU MYO3A (11730013_a_at) / Fold change /veh MYO3A (11730013_a_at) / RFU EBF3 (11725865_a_at) / Fold change /veh EBF3 (11725865_a_at) / RFU CAMK2N1 (11719241_x_at) / Fold change /veh CAMK2N1 (11719241_x_at) / RFU C5orf56 (11738088_a_at) / Fold change /veh C5orf56 (11738088_a_at) / RFU OLFML3 (11715873_a_at) / Fold change /veh OLFML3 (11715873_a_at) / RFU LOC100653217 /// NTM (11731650_a_at) / Fold change /veh LOC100653217 /// NTM (11731650_a_at) / RFU MAPK11 (11762145_a_at) / Fold change /veh MAPK11 (11762145_a_at) / RFU FIZ1 (11724087_x_at) / Fold change /veh FIZ1 (11724087_x_at) / RFU OASL (11726364_x_at) / Fold change /veh OASL (11726364_x_at) / RFU SOX15 (11748057_x_at) / Fold change /veh SOX15 (11748057_x_at) / RFU CD79A (11719716_a_at) / Fold change /veh CD79A (11719716_a_at) / RFU HIST1H1D (11736915_at) / Fold change /veh HIST1H1D (11736915_at) / RFU CASKIN2 (11723855_a_at) / Fold change /veh CASKIN2 (11723855_a_at) / RFU LOC730098 (11760151_x_at) / Fold change /veh LOC730098 (11760151_x_at) / RFU OR4N2 (11742367_at) / Fold change /veh OR4N2 (11742367_at) / RFU PRRT2 (11749266_a_at) / Fold change /veh PRRT2 (11749266_a_at) / RFU SNX32 (11753110_a_at) / Fold change /veh SNX32 (11753110_a_at) / RFU CDHR5 (11726645_a_at) / Fold change /veh CDHR5 (11726645_a_at) / RFU RCAN1 (11760418_a_at) / Fold change /veh RCAN1 (11760418_a_at) / RFU FAM167A (11723789_a_at) / Fold change /veh FAM167A (11723789_a_at) / RFU FAM26E (11764081_at) / Fold change /veh FAM26E (11764081_at) / RFU ISYNA1 (11749810_s_at) / Fold change /veh ISYNA1 (11749810_s_at) / RFU ACY1 (11761880_at) / Fold change /veh ACY1 (11761880_at) / RFU 11764098_at / Fold change /veh 11764098_at / RFU SAMD14 (11745864_x_at) / Fold change /veh SAMD14 (11745864_x_at) / RFU NPB (11741838_a_at) / Fold change /veh NPB (11741838_a_at) / RFU TMPRSS6 (11731388_a_at) / Fold change /veh TMPRSS6 (11731388_a_at) / RFU KRTAP10-2 (11738614_at) / Fold change /veh KRTAP10-2 (11738614_at) / RFU ARHGAP8 /// PRR5-ARHGAP8 (11727945_x_at) / Fold change /veh ARHGAP8 /// PRR5-ARHGAP8 (11727945_x_at) / RFU KRTAP5-7 /// NADSYN1 (11734609_at) / Fold change /veh KRTAP5-7 /// NADSYN1 (11734609_at) / RFU RASL12 (11751679_a_at) / Fold change /veh RASL12 (11751679_a_at) / RFU CDKN2B (11736163_a_at) / Fold change /veh CDKN2B (11736163_a_at) / RFU PRF1 (11729649_at) / Fold change /veh PRF1 (11729649_at) / RFU, ZNF638 /// ZNF638-IT1 / Fold change vs veh, ZNF638 /// ZNF638-IT1 / RFU, PANK3 / Fold change vs veh, PANK3 / RFU, SH3YL1 / Fold change vs veh, SH3YL1 / RFU, ZEB2 / Fold change vs veh, ZEB2 / RFU, NRIP1 / Fold change vs veh, NRIP1 / RFU, PTTG1IP / Fold change vs veh, PTTG1IP / RFU, CAPN2 / Fold change vs veh, CAPN2 / RFU, MED14 / Fold change vs veh, MED14 / RFU, SNORA58 / Fold change vs veh, SNORA58 / RFU, C1orf63 / Fold change vs veh, C1orf63 / RFU, LRRFIP1 / Fold change vs veh, LRRFIP1 / RFU, NDUFAF7 / Fold change vs veh, NDUFAF7 / RFU, SLC12A2 / Fold change vs veh, SLC12A2 / RFU, IBTK / Fold change vs veh, IBTK / RFU, ESF1 / Fold change vs veh, ESF1 / Fold change vs veh, TMEM50B / RFU, TAOK1 / Fold change vs veh, TAOK1 / RFU, ACBD3 / Fold change vs veh, ACBD3 / RFU, TMA16 / Fold change vs veh, TMA16 / RFU, RWDD3 / Fold change vs veh, RWDD3 / RFU, BCAT1 / Fold change vs veh, BCAT1 / RFU, EDEM3 / Fold change vs veh, EDEM3 / RFU, TMEM33 / Fold change vs veh, TMEM33 / RFU, WDR75 / Fold change vs veh, WDR75 / RFU, AHCTF1 / Fold change vs veh, AHCTF1 / RFU, TFRC / Fold change vs veh, TFRC / RFU, ZDHHC17 / Fold change vs veh, ZDHHC17 / RFU, NOM1 / Fold change vs veh, NOM1 / RFU, ARL8B / Fold change vs veh, ARL8B / RFU, ZBTB11 / Fold change vs veh, ZBTB11 / RFU, TAMM41 / Fold change vs veh, TAMM41 / RFU, KIAA1704 /// LOC100996395 / Fold change vs veh, KIAA1704 /// LOC100996395 / RFU, ING1 / Fold change vs veh, ING1 / RFU, TRMT61B / Fold change vs veh, TRMT61B / RFU, FUBP3 / Fold change vs veh, FUBP3 / RFU, TP53 / Fold change vs veh, TP53 / RFU, TNKS2 / Fold change vs veh, TNKS2 / RFU, ZFP14 / Fold change vs veh, ZFP14 / RFU, ACTR2 / Fold change vs veh, ACTR2 / RFU, PPP3R1 / Fold change vs veh, PPP3R1 / RFU, PIK3R1 / Fold change vs veh, PIK3R1 / RFU, HNRNPA1 / Fold change vs veh, HNRNPA1 / RFU, RNF170 / Fold change vs veh, RNF170 / RFU, ZNF28 / Fold change vs veh, ZNF28 / RFU, RNGTT / Fold change vs veh, RNGTT / RFU, OGT / Fold change vs veh, OGT / RFU, BRD1 / Fold change vs veh, BRD1 / RFU, MARS / Fold change vs veh, MARS / RFU, ZNF655 / Fold change vs veh, ZNF655 / RFU, FAHD1 / Fold change vs veh, FAHD1 / RFU, BDP1 / Fold change vs veh, BDP1 / RFU, LRRCC1 / Fold change vs veh, LRRCC1 / RFU, ARID1A / Fold change vs veh, ARID1A / RFU, ZNF146 / Fold change vs veh, ZNF146 / RFU, ZNF330 / Fold change vs veh, ZNF330 / RFU, GPN3 / Fold change vs veh, GPN3 / RFU, C9orf123 / Fold change vs veh, C9orf123 / RFU, N4BP2L2 / Fold change vs veh, N4BP2L2 / RFU, ARFIP1 / Fold change vs veh, ARFIP1 / RFU, FAM179B / Fold change vs veh, FAM179B / RFU, BCL10 / Fold change vs veh, BCL10 / RFU, UHRF1BP1L / Fold change vs veh, UHRF1BP1L / RFU, BET1 / Fold change vs veh, BET1 / RFU, CNOT2 / Fold change vs veh, CNOT2 / RFU, ZNF268 / Fold change vs veh, ZNF268 / Fold change vs veh, ZNF507 / RFU, DGCR2 / Fold change vs veh, DGCR2 / RFU, WDSUB1 / Fold change vs veh, WDSUB1 / Fold change vs veh, HSP90B1 /// MIR3652 / RFU, ADSS / Fold change vs veh, ADSS / RFU, GK / Fold change vs veh, GK / RFU, ZNF148 / Fold change vs veh, ZNF148 / RFU, TAF9 / Fold change vs veh, TAF9 / RFU, SLC1A5 / Fold change vs veh, SLC1A5 / RFU, SLMO2 / Fold change vs veh, SLMO2 / RFU, ABCC4 / Fold change vs veh, ABCC4 / RFU, LOC101060439 /// RAP1B / Fold change vs veh, LOC101060439 /// RAP1B / RFU, RFX7 / Fold change vs veh, RFX7 / RFU, GTPBP10 / Fold change vs veh, GTPBP10 / RFU, CNEP1R1 / Fold change vs veh, CNEP1R1 / RFU, BIVM-ERCC5 /// ERCC5 / Fold change vs veh, BIVM-ERCC5 /// ERCC5 / RFU, ILF3 / Fold change vs veh, ILF3 / RFU 11762660_at / Fold change /veh 11762660_at / RFU VCAN (11757783_s_at) / Fold change /veh VCAN (11757783_s_at) / RFU DDX43 (11728927_at) / Fold change /veh DDX43 (11728927_at) / RFU KRT8 (11758188_x_at) / Fold change /veh KRT8 (11758188_x_at) / RFU NKD1 (11759106_at) / Fold change /veh NKD1 (11759106_at) / RFU SRD5A1 (11742802_a_at) / Fold change /veh SRD5A1 (11742802_a_at) / RFU TPSAB1 /// TPSB2 (11721975_s_at) / Fold change /veh TPSAB1 /// TPSB2 (11721975_s_at) / RFU GSTM3 (11746129_a_at) / Fold change /veh GSTM3 (11746129_a_at) / RFU IL23R (11737362_x_at) / Fold change /veh IL23R (11737362_x_at) / RFU TMEM51 (11727254_a_at) / Fold change /veh TMEM51 (11727254_a_at) / RFU PIWIL2 (11732686_x_at) / Fold change /veh PIWIL2 (11732686_x_at) / RFU ORM1 (11744905_x_at) / Fold change /veh ORM1 (11744905_x_at) / RFU CCDC152 (11743942_at) / Fold change /veh CCDC152 (11743942_at) / RFU ECM1 (11717891_a_at) / Fold change /veh ECM1 (11717891_a_at) / RFU IL23R (11748794_a_at) / Fold change /veh IL23R (11748794_a_at) / RFU TNFAIP8L3 (11732012_x_at) / Fold change /veh TNFAIP8L3 (11732012_x_at) / RFU MBOAT4 (11741988_at) / Fold change /veh MBOAT4 (11741988_at) / RFU 11764193_at / Fold change /veh 11764193_at / RFU TMEM53 (11763286_at) / Fold change /veh TMEM53 (11763286_at) / RFU MAGEB2 (11727129_at) / Fold change /veh MAGEB2 (11727129_at) / RFU TMEM200A (11744735_a_at) / Fold change /veh TMEM200A (11744735_a_at) / RFU CCDC152 (11751479_a_at) / Fold change /veh CCDC152 (11751479_a_at) / RFU FAM211A (11726209_a_at) / Fold change /veh FAM211A (11726209_a_at) / RFU RGS16 (11746705_a_at) / Fold change /veh RGS16 (11746705_a_at) / RFU VCAN (11755009_s_at) / Fold change /veh VCAN (11755009_s_at) / RFU RHOB (11743442_s_at) / Fold change /veh RHOB (11743442_s_at) / RFU RGS16 (11720943_a_at) / Fold change /veh RGS16 (11720943_a_at) / RFU RGS16 (11720944_at) / Fold change /veh RGS16 (11720944_at) / RFU, VPS4B / Fold change vs veh, VPS4B / RFU, CREB1 / Fold change vs veh, CREB1 / RFU, DNAJC13 / Fold change vs veh, DNAJC13 / RFU, GNAQ / Fold change vs veh, GNAQ / RFU, CDK5R1 / Fold change vs veh, CDK5R1 / RFU, ZRANB3 / Fold change vs veh, ZRANB3 / RFU, CUL4A / Fold change vs veh, CUL4A / RFU, CCNY / Fold change vs veh, CCNY / RFU, UFL1 / Fold change vs veh, UFL1 / RFU, COG3 / Fold change vs veh, COG3 / RFU, DIAPH2 / Fold change vs veh, DIAPH2 / RFU, SKA2 / Fold change vs veh, SKA2 / RFU, AFF3 / Fold change vs veh, AFF3 / RFU, LMF1 / Fold change vs veh, LMF1 / RFU, IPO11 / Fold change vs veh, IPO11 / RFU, DFFB / Fold change vs veh, DFFB / RFU, FOXP1 / Fold change vs veh, FOXP1 / RFU, CARD8 / Fold change vs veh, CARD8 / RFU, STRN3 / Fold change vs veh, STRN3 / RFU, ADK / Fold change vs veh, ADK / RFU, RASSF2 / Fold change vs veh, RASSF2 / RFU, WIPF1 / Fold change vs veh, WIPF1 / RFU, LARP1B / Fold change vs veh, LARP1B / RFU, RASA1 / Fold change vs veh, RASA1 / RFU, RB1 / Fold change vs veh, RB1 / RFU, PPFIA1 / Fold change vs veh, PPFIA1 / RFU, MAT2A / Fold change vs veh, MAT2A / RFU, CCT5 / Fold change vs veh, CCT5 / RFU, WDR92 / Fold change vs veh, WDR92 / RFU, CUX1 / Fold change vs veh, CUX1 / RFU, TTC7A / Fold change vs veh, TTC7A / RFU, TMEM135 / Fold change vs veh, TMEM135 / RFU, DEPTOR / Fold change vs veh, DEPTOR / RFU, CPM / Fold change vs veh, CPM / RFU, DNAJB6 / Fold change vs veh, DNAJB6 / RFU, CACNA2D3 / Fold change vs veh, CACNA2D3 / RFU, DTX4 / Fold change vs veh, DTX4 / RFU, TFCP2 / Fold change vs veh, TFCP2 / RFU, GMCL1 /// GMCL1P1 / Fold change vs veh, GMCL1 /// GMCL1P1 / RFU, AEBP2 / Fold change vs veh, AEBP2 / RFU, SNHG1 /// SNORD22 /// SNORD25 /// SNORD26 /// SNORD27 /// SNORD28 /// SNORD29 /// SNORD31 / Fold change vs veh, SNHG1 /// SNORD22 /// SNORD25 /// SNORD26 /// SNORD27 /// SNORD28 /// SNORD29 /// SNORD31 / Fold change (Aza/veh), C12orf56 (ProbeSet 11735607_a_at) / Fold change (ACY-1035/veh), C12orf56 (ProbeSet 11735607_a_at) / Fold change (Aza/veh), FGFR1OP (ProbeSet 11751329_s_at) / Fold change (ACY-1035/veh), FGFR1OP (ProbeSet 11751329_s_at) / Fold change (Aza/veh), VPS36 (ProbeSet 11739960_a_at) / Fold change (ACY-1035/veh), VPS36 (ProbeSet 11739960_a_at) / RFU SYPL1 (11715823_x_at) / Fold change /veh SYPL1 (11715823_x_at) / RFU IGFBP7 (11715501_s_at) / Fold change /veh IGFBP7 (11715501_s_at) / RFU REEP3 (11722064_at) / Fold change /veh REEP3 (11722064_at) / RFU IGLL1 (11728026_x_at) / Fold change /veh IGLL1 (11728026_x_at): dose or concentration left out as unconfirmed
Details: MV-4-11 cells, 48 hours

Nc1ccc(-c2cccs2)cc1NC(=O)c1ccc2c(c1)cc(C1CC1)n2CCN1CCOCC1 [ACY-1035]
RFU TMEM136 (11760407_x_at): 15.13 RFU
